Structures are written as SMILES.

Assay [1] deals with T1, 3-oxoacyl-[acyl-carrier-protein] synthase 2 (Mycobacterium tuberculosis (strain ATCC 25618 / H37Rv), UniProt P9WQD7).
T1 sequence (P9WQD7 whole entry): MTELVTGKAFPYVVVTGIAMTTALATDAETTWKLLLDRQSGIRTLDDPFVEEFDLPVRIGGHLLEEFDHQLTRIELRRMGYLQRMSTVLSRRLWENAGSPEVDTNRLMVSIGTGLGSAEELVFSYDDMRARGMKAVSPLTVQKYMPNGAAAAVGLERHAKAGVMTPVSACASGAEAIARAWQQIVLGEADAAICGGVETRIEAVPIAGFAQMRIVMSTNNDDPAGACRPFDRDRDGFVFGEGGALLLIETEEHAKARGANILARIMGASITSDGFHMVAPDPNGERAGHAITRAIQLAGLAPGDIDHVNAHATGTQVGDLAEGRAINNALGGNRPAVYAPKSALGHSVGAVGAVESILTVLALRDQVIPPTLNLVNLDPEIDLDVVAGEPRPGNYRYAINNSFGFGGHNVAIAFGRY
In words: Inhibitory activity against KasB from Mycobacterium tuberculosis H37Rv.

Assay [2] has as its target T2, 3-oxoacyl-[acyl-carrier-protein] synthase 3 (Mycobacterium tuberculosis (strain ATCC 25618 / H37Rv), UniProt P9WNG3).
T2 sequence (P9WNG3 whole entry): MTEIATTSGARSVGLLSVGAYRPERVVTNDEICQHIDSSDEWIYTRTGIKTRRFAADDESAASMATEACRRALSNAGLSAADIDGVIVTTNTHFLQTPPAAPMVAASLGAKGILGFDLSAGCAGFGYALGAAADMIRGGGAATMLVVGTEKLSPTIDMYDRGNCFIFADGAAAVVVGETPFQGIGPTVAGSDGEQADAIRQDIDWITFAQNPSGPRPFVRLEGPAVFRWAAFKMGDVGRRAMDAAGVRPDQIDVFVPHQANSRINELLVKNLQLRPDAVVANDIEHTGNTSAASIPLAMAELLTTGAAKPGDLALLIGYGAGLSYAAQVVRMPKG
In words: Inhibitory activity against FabH from Mycobacterium tuberculosis H37Rv.

The target of assay [3] is T3, 3-oxoacyl-[acyl-carrier-protein] synthase 1 (Escherichia coli (strain K12), UniProt P0A953).
T3 sequence (P0A953 whole entry): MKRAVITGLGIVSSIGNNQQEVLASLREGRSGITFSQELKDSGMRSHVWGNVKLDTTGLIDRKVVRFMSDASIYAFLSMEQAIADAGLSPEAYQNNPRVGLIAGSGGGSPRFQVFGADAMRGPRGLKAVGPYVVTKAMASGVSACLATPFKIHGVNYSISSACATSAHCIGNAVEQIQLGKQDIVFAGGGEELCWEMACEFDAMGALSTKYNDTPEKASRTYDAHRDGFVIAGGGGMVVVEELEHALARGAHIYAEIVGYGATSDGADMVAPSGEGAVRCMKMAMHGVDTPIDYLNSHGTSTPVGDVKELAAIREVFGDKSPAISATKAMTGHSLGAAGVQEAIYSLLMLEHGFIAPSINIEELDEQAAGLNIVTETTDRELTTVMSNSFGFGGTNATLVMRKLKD
The assay can be described thus: Inhibitory activity against FabB from Escherichia coli ANSI.

Assay [4] has as its target T4, 3-oxoacyl-[acyl-carrier-protein] synthase 3 (Escherichia coli, UniProt C3TDZ2).
T4 sequence (C3TDZ2 whole entry): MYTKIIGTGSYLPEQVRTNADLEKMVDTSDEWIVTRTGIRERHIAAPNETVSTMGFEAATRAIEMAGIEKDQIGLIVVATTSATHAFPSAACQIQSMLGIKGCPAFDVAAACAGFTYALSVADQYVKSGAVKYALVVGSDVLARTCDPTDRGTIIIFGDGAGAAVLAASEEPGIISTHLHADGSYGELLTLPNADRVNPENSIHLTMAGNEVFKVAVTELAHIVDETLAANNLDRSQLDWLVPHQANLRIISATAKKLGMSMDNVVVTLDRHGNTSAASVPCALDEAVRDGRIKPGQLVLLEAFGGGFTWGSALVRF
The assay can be described thus: Inhibitory activity against FabH from Escherichia coli ANSI.

For orientation: IC50 means the concentration at which inhibition is half-maximal. In the case of `CCCCCC(C)C1(C)SC(=O)C(C)C1=O` (stereo not given) [3,5-dimethyl-4-hydroxy-5-(1-methylhexyl)-5H-thiophen-2-one], the 50% inhibitory concentration (IC50) in assay [1], in assay [2], in assay [3] and in assay [4] was greater than 1000 µM in each case.

Turning to `CCC(C)C1(C)SC(=O)C(C)C1=O` (stereo not given) [3,5-dimethyl-4-hydroxy-5-(1-methylpropyl)-5H-thiophen-2-one], the IC50 in assay [2] was greater than 100 µM.

For `CC1C(=O)SC(C)(C(C)c2ccccc2)C1=O` (stereo not given) [3,5-dimethyl-4-hydroxy-5-(1-phenylethyl)-5H-thiophen-2-one], the IC50 in assay [1], in assay [2], in assay [3] and in assay [4] was greater than 1000 µM in each case.

For the compound `Cc1cc(C)c(CC2(C)SC(=O)C(C)C2=O)c(C)c1` (stereo not given) [3,5-dimethyl-4-hydroxy-5-(2,4,6-trimethylbenzyl)-5H-thiophen-2-one], the IC50 in assay [1], in assay [2], in assay [3] and in assay [4] was greater than 1000 µM in each case.

As to `COc1ccccc1CC1(C)SC(=O)C(C)C1=O` (stereo not given) [3,5-dimethyl-4-hydroxy-5-(2-methoxybenzyl)-5H-thiophen-2-one], the IC50 was greater than 1000 µM in assay [1], greater than 100 µM in assay [2], greater than 1000 µM in assay [3] and greater than 1000 µM in assay [4].

As to `Cc1ccccc1CC1(C)SC(=O)C(C)C1=O` (stereo not given) [3,5-dimethyl-4-hydroxy-5-(2-methylbenzyl)-5H-thiophen-2-one], the IC50 in assay [1], in assay [2], in assay [3] and in assay [4] was greater than 1000 µM throughout.

As for `Cc1cccc(CC2(C)SC(=O)C(C)C2=O)c1` (stereo not given) [3,5-dimethyl-4-hydroxy-5-(3-methylbenzyl)-5H-thiophen-2-one], the IC50 in assay [1], in assay [2], in assay [3] and in assay [4] was greater than 1000 µM in each case.

Consider `CC(C)CCC1(C)SC(=O)C(C)C1=O` (stereo not given) [3,5-dimethyl-4-hydroxy-5-(3-methylbutyl)-5H-thiophen-2-one], for which the IC50 in assay [1], in assay [2], in assay [3] and in assay [4] was greater than 1000 µM in each case.

For the compound `CC1C(=O)SC(C)(CCCc2ccccc2)C1=O` (stereo not given) [3,5-dimethyl-4-hydroxy-5-(3-phenylpropyl)-5H-thiophen-2-one], the IC50 in assay [1], in assay [2], in assay [3] and in assay [4] was greater than 1000 µM each time.

For the compound `CC1C(=O)SC(C)(Cc2cccc(C(F)(F)F)c2)C1=O` (stereo not given) [3,5-dimethyl-4-hydroxy-5-(3-trifluoromethylbenzyl)-5H-thiophen-2-one], the IC50 in assay [1], in assay [2], in assay [3] and in assay [4] was greater than 1000 µM in each case.

In the case of `Cc1ccc(CC2(C)SC(=O)C(C)C2=O)cc1` (stereo not given) [3,5-dimethyl-4-hydroxy-5-(4-methylbenzyl)-5H-thiophen-2-one], the IC50 in assay [1], in assay [2], in assay [3] and in assay [4] was greater than 1000 µM each time.

With `CC1C(=O)SC(C)(Cc2ccc([N+](=O)[O-])cc2)C1=O` (stereo not given) [3,5-dimethyl-4-hydroxy-5-(4-nitrobenzyl)-5H-thiophen-2-one], the IC50 in assay [1], in assay [2], in assay [3] and in assay [4] was greater than 1000 µM throughout.

For the compound `CC1C(=O)SC(C)(Cc2ccc(C(F)(F)F)cc2)C1=O` (stereo not given) [3,5-dimethyl-4-hydroxy-5-(4-trifluoromethylbenzyl)-5H-thiophen-2-one], in assay [2], the IC50 was greater than 100 µM.

As to `CC/C=C/CC1(C)SC(=O)C(C)C1=O` (stereo not given) [3,5-dimethyl-4-hydroxy-5-((E)-pent-2-enyl)-5H-thiophen-2-one], the concentration for half-maximal inhibition (IC50) in assay [1], in assay [2], in assay [3] and in assay [4] was greater than 1000 µM in each case.

Consider `CC[C@H](C)CC1(C)SC(=O)C(C)C1=O` (stereo partly drawn) [3,5-dimethyl-4-hydroxy-5-((S)2-methylbutyl)-5H-thiophen-2-one], for which the IC50 in assay [4] is greater than 100 µM.

On to `CC1C(=O)SC(C)(Cc2ccc3ccccc3c2)C1=O` (stereo not given) [3,5-dimethyl-4-hydroxy-5-(naphthalen-2-ylmethyl)-5H-thiophen-2-one], for which the IC50 in assay [1] was greater than 1000 µM; in assay [2], greater than 100 µM; in assay [3], greater than 1000 µM; in assay [4], greater than 1000 µM.

As for `CCCCCCCCCC1(C)SC(=O)C(C)C1=O` (stereo not given) [3,5-dimethyl-4-hydroxy-5-nonyl-5H-thiophen-2-one], the IC50 in assay [1] was greater than 1000 µM; in assay [2], greater than 100 µM; in assay [3], greater than 1000 µM; in assay [4], greater than 100 µM.

Regarding `C=CCCCCCCC1(C)SC(=O)C(C)C1=O` (stereo not given) [3,5-dimethyl-4-hydroxy-5-oct-7-enyl-5H-thiophen-2-one], the IC50 in assay [1], in assay [2], in assay [3] and in assay [4] was greater than 1000 µM in each case.

As to `CC1C(=O)SC(C)(CCc2ccccc2)C1=O` (stereo not given) [3,5-dimethyl-4-hydroxy-5-phenethyl-5H-thiophen-2-one], the IC50 in assay [1], in assay [2], in assay [3] and in assay [4] was greater than 1000 µM throughout.

On to `CCCCCCCCCCCCCCC1(C)SC(=O)C(C)C1=O` (stereo not given) [3,5-dimethyl-4-hydroxy-5-tetradecyl-5H-thiophen-2-one], for which the IC50 in assay [2] was 80 µM; in assay [3], greater than 100 µM; in assay [4], 100 µM.

`CCCCCCCCCCCCCC1(C)SC(=O)C(C)C1=O` (stereo not given) [3,5-dimethyl-4-hydroxy-5-tridecyl-5H-thiophen-2-one]: the concentration for half-maximal inhibition (IC50) was 80 µM in assay [2], greater than 100 µM in assay [3] and 100 µM in assay [4].

Consider `CCCCCCCCCCCC1(C)SC(=O)C(C)C1=O` (stereo not given) [3,5-dimethyl-4-hydroxy-5-undecyl-5H-thiophen-2-one], for which the IC50 is greater than 1000 µM in assay [1], greater than 1000 µM in assay [3] and greater than 100 µM in assay [4].

Regarding `Cc1ccc(C)c(CC2(C)SC(=O)C(C)C2=O)c1` (stereo not given) [3,5-dimethyl-5-(2,5-dimethylbenzyl)-4-hydroxy-5H-thiophen-2-one], the 50% inhibitory concentration (IC50) in assay [1], in assay [2], in assay [3] and in assay [4] was greater than 1000 µM each time.

For the compound `CCCCCCCCC1(C)SC(=O)C(C)C1=O` (stereo not given) [4-Hydroxy-3,5-dimethyl-5-octyl-5H-thiophen-2-one], the IC50 in assay [2] and in assay [4] was greater than 100 µM throughout.

Consider `CC1C(=O)SC(C)(Cc2ccc(Cl)cc2Cl)C1=O` (stereo not given) [5-(2,4-dichlorobenzyl)-3,5-dimethyl-4-hydroxy-5H-thiophen-2-one], for which the IC50 in assay [2] is greater than 100 µM.

Consider `CC1C(=O)SC(C)(Cc2ccc(Cl)c(Cl)c2)C1=O` (stereo not given) [5-(3,4-dichlorobenzyl)-3,5-dimethyl-4-hydroxy-5H-thiophen-2-one], for which the IC50 in assay [2] and in assay [4] was greater than 100 µM in each case.

In assay [4], `CC(C)=CCC/C(C)=C/CC1(C)SC(=O)C(C)C1=O` (stereo not given) [5-((E)-3,7-Dimethyl-octa-2,6-dienyl)-4-hydroxy-3,5-dimethyl-5H-thiophen-2-one] yielded an IC50 of 100 µM.

On to `CCCCCCCCCCC1(C)SC(=O)C(C)C1=O` (stereo not given) [5-Decyl-4-hydroxy-3,5-dimethyl-5H-thiophen-2-one], for which the values for the IC50 in assay [2] and in assay [4] were greater than 100 µM and 100 µM, respectively.

As to `CC1C(=O)SC(C)(C2CCCCC2)C1=O` (stereo not given) [5-cyclohexyl-3,5-dimethyl-4-hydroxy-5H-thiophen-2-one], in assay [2], the concentration for half-maximal inhibition (IC50) was greater than 100 µM.

`CC1C(=O)SC(C)(CC2CC2)C1=O` (stereo not given) [5-cyclopropylmethyl-3,5-dimethyl-4-hydroxy-5H-thiophen-2-one]: the IC50 in assay [4] was greater than 100 µM.

(Values after BindingDB's records for doi:10.1021/jm050825p (National Institute of Allergy and Infectious Diseases, 2006).)
